The target in data set [1] is PI3Kβ (heterocomplex of p110β and GST-p85α) (UniProt Q9Z1L0). Briefly: Isozyme selectivity test: kinase assay of PI3Kβ. The class given is biochemical. The following applies: activity class of IC50; read-out: In vitro PI3K-β inhibitory activity. As for the experimental part:
[Isozyme Selectivity Test in PI3K]
{Determination of IC50 Values of Compounds in Kinase Assay of PI3Kβ}
Recombinant baculovirus of PI3Kβ p110β and GST-p85α were obtained from Dr. Katada (University of Tokyo). Recombinant PI3K heterocomplex of p110β and GST-p85α were co-expressed in insect cells according to manufacture's instruction (Pharmingen, San Diego, Calif.), and purified with glutathione affinity column. Kinase assay of PI3Kβ was prepared in a similar manner as described in the part of [Determination of IC50 values of compounds in kinase assay of PI3Kγ].

The target in data set [2] is T1, Recombinant human PI3Kγ (full length human PI3K p110γ) (Homo sapiens, UniProt P48736).
T1 construct: full length human PI3K p110γ fused with a His6-tag at the C-terminus; His6 (C); purchased ALEXIS BIOCHEMICALS #201-055-C010; host or cells: S. frugiperda 9 insect cells
Put plainly: Kinase assay of PI3Kγ (solid-phase lipid kinase assay). The following applies: activity class of IC50; read-out: In vitro PI3K-γ inhibitory activity. In kind it is biochemical.

T1 sequence (P48736 whole entry, the tested form may be a part): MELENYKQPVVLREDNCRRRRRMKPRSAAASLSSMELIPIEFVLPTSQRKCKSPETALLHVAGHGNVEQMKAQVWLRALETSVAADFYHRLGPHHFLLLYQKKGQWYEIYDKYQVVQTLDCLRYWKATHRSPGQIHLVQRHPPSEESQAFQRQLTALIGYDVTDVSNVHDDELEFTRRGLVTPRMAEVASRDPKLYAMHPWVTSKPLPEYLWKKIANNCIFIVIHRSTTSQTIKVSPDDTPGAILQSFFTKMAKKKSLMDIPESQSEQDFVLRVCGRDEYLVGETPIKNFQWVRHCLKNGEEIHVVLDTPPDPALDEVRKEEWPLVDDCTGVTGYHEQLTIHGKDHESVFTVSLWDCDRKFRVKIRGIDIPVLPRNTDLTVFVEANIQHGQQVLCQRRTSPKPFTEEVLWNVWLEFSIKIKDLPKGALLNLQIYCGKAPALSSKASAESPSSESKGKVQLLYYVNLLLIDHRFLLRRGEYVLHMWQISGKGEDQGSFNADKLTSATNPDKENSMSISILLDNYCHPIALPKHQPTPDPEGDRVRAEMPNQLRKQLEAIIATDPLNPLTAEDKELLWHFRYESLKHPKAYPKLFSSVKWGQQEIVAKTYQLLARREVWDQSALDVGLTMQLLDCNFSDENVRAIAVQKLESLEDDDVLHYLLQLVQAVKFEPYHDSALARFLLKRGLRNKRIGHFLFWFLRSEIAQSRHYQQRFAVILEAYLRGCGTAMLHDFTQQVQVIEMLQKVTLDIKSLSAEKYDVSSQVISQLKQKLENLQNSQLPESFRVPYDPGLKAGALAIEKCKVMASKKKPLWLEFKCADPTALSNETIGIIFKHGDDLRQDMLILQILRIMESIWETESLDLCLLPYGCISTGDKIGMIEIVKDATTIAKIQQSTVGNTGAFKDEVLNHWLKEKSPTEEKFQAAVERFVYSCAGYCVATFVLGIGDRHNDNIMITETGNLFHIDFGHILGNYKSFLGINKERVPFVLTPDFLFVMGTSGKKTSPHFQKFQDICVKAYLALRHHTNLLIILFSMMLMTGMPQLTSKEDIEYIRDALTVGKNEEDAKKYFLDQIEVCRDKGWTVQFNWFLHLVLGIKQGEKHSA

Compound `O=C(NC1=Nc2cc(OCCn3cccc3)ccc2C2=NCCN12)c1cccnc1` [Example 2-6, N-{8-[2-(1-pyrrolyl)ethoxy]-2,3-dihydroimidazo[1,2-c]quinazolin-5-yl}nicotinamide] returned a melting point of 209 °C. Besides, the IC50 in data set [1] is 0.1 to 0.5 µM. The IC50 in data set [2] was in the range of 0.1 to 0.5 µM.
